What was measured:
Rattus norvegicus [1] = assay: Anti-anabolic activity against albino rat assessed as mass gain of levator ani-muscle at 0.1 mg/kg, sc administered for 7 days; type: functional; details: time 7 day
[2] = Acute toxicity in ip dosed albino rat administered twice daily for 14 days; type: organism-based; details: in vivo, time 14 day
Rattus norvegicus [3] = species: Rattus norvegicus; assay: Ratio of anti-anabolic activity against albino rat assessed as reduction in mass of levator ani-muscle to anti-androgenic activity against albino rat assessed as mass gain of prostate gland; type: functional
Rattus norvegicus [4] = assay: Anti-androgen activity against albino rat assessed as mass gain of prostate gland at 0.1 mg/kg, sc administered for 7 days; type: functional; details: time 7 day
[5] = Cytotoxicity against human RWPE-1 cells assessed as reduction in cell viability incubated for 48 hrs by SRB assay; type: toxicity, cell-based
PC-3 [6] = assay: Cytotoxicity against human PC-3 cells assessed as reduction in cell viability incubated for 48 hrs by SRB assay; type: toxicity, cell-based; details: PC-3, 48 h
EC9706 [7] = assay: Cytotoxicity against human EC9706 cells assessed as reduction in cell growth incubated for 48 hrs by MTT assay; type: functional, cell-based; details: EC9706, 48 h
MGC-803 [8] = assay: Cytotoxicity against human MGC-803 cells assessed as reduction in cell growth incubated for 48 hrs by MTT assay; type: functional, cell-based; details: MGC-803, 48 h
ECa-109 cell line [9] = assay: Cytotoxicity against human EC109 cells assessed as reduction in cell growth incubated for 48 hrs by MTT assay; type: functional, cell-based; details: ECa-109, 48 h
[10] = Antiproliferative activity against human […] cells assessed as reduction in cell viability by MTT assay; type: functional, cell-based
HeLa [11] = assay: Antiproliferative activity against human HeLa cells assessed as reduction in cell viability by MTT assay; type: functional, cell-based
[12] = test system: Respiratory syncytial virus; assay: Antiviral activity against Respiratory syncytial virus infected in human HEp-2 cells assessed as inhibition of virus-induced cytopathic effect measured after 6 days by CellTiter-Glo assay; type: functional, organism-based; details: HEp-2, 144 h
[13] = Cytotoxicity against human HEp-2 cells assessed as reduction in cell viability incubated for 48 hrs by MTT assay; type: toxicity, cell-based
[14] = Selectivity index, ratio of CC50 for cytotoxicity against human HEp-2 cells to EC50 for antiviral activity against Respiratory syncytial virus infected in human HEp-2 cells; type: toxicity, cell-based; details: read-out: Ratio CC50/EC50
SK-OV-3 = assay: Antiproliferative activity against human SK-OV-3 cells assessed as reduction in cell growth incubated for 48 hrs by MTT assay; type: functional, cell-based; details: SK-OV-3, 48 h
EC9706 [15] = assay: Antiproliferative activity against human EC9706 assessed as reduction in cell proliferation incubated for 72 hrs by MTT assay; type: functional, cell-based; details: EC9706, 72 h
HeLa [16] = assay: Antiproliferative activity against human HeLa cells assessed as reduction in cell growth incubated for 48 hrs by MTT assay; type: functional, cell-based
ECa-109 cell line [17] = assay: Antiproliferative activity against human EC109 cells assessed as reduction in cell proliferation incubated for 72 hrs by MTT assay; type: functional, cell-based; details: ECa-109, 72 h
HepG2 = assay: Antiproliferative activity against human HepG2 cells assessed as reduction in cell growth incubated for 48 hrs by MTT assay; type: functional, cell-based; details: HepG2, 48 h
MCF7 [18] = assay: Antiproliferative activity against human MCF7 cells assessed as reduction in cell growth incubated for 48 hrs by MTT assay; type: functional, cell-based; details: MCF7, 48 h
MGC-803 [19] = assay: Cytotoxicity against human MGC-803 cells assessed as reduction in cell viability incubated for 72 hrs by MTT assay; type: functional, cell-based; details: MGC-803, 72 h
MCF7 [20] = assay: Cytotoxicity against human MCF7 cells assessed as reduction in cell viability incubated for 72 hrs by MTT assay; type: functional, cell-based; details: MCF7, 72 h
MGC-803 [21] = assay: Antiproliferative activity against human MGC-803 cells assessed as cell growth inhibition measured after 48 hrs by MTT assay; type: functional, cell-based; details: MGC-803, 48 h
A549 = assay: Cytotoxicity against human A549 cells assessed as reduction in cell viability incubated for 72 hrs by MTT assay; type: functional, cell-based; details: A549, 72 h
PC-3 [22] = assay: Cytotoxicity against human PC-3 cells assessed as reduction in cell viability incubated for 72 hrs by MTT assay; type: functional, cell-based; details: PC-3, 72 h

In the case of CCOC1(OCC)NC(c2ccccc2)=C2C[C@H]3[C@@H]4CC[C@H]5C[C@@H](O)CC[C@]5(C)[C@H]4CC[C@]3(C)C2=C1C#N, the Activity (Rattus norvegicus [1]) is reported as 0.486 g, the LD50 at 336 h [2] is reported as 4900 mg/kg and the Ratio (Rattus norvegicus [3]) is reported as 1.41. For the same compound, the Activity (Rattus norvegicus [4]) was 0.345 g.
Work on CCOC(=O)c1cc2c(nc1-c1ccccc1)[C@@]1(C)CC[C@H]3[C@@H](CC=C4C[C@@H](OC(C)=O)CC[C@@]43C)[C@@H]1C2 yielded an IC50 at 48 h [5] of 375 µM and an IC50 (PC-3 [6]) of 437 µM.
CCOC(=O)c1cc2c(nc1C(=O)OCC)[C@@]1(C)CC[C@H]3[C@@H](CC=C4C[C@@H](OC(C)=O)CC[C@@]43C)[C@@H]1C2 gave an IC50 at 48 h [5] of 218 µM and an IC50 (PC-3 [6]) of 100 µM.
In the case of CC(=O)O[C@H]1CC[C@@]2(C)C(=CC[C@@H]3[C@@H]2CC[C@]2(C)c4nc(N)c(C#N)cc4C[C@@H]32)C1, the IC50 (EC9706 [7]) is reported as 58.4 µM, the IC50 (MGC-803 [8]) is reported as 16.3 µM and the IC50 (ECa-109 cell line [9]) is reported as 20.5 µM.
With CC(=O)O[C@H]1CC[C@@]2(C)C(=CC[C@@H]3[C@@H]2CC[C@]2(C)c4cc(-c5ccc(C)cc5)ncc4C[C@@H]32)C1 the IC50 [10] was ≥ 100 µM and the IC50 (HeLa [11]) was ≥ 100 µM.
For CC(=O)O[C@H]1CC[C@@]2(C)C(=CC[C@H]3[C@@H]4CC[C@H](c5cc(-c6ccccc6F)c(C#N)c(N)n5)[C@@]4(C)CC[C@@H]32)C1, the EC50 [12] was 12.4 µM, the CC50 at 48 h [13] was 288 µM and the selectivity ratio [14] was 23.2.
Work on C[C@]12CC[C@H]3[C@@H](CCC4=CC(=O)CC[C@@]43C)[C@@H]1CC[C@@H]2O [TESTOSTERONE] yielded an Activity (Rattus norvegicus [1]) of 0.204 g, an LD50 at 336 h [2] of 2750 mg/kg and a Ratio (Rattus norvegicus [3]) of 0.27. The Activity (Rattus norvegicus [4]) was 0.76 g.
In the case of CCCCc1cc2c(cn1)C[C@H]1[C@@H]3CC=C4C[C@@H](OC(C)=O)CC[C@]4(C)[C@H]3CC[C@]21C, the IC50 [10] is reported as ≥ 100 µM and the IC50 (HeLa [11]) is reported as ≥ 100 µM.
With CCOC(=O)c1cc2c(nc1-c1ccccc1)[C@@]1(C)CC[C@H]3[C@@H](CC=C4C[C@@H](O)CC[C@@]43C)[C@@H]1C2 the IC50 at 48 h [5] was 189 µM and the IC50 (PC-3 [6]) was 197 µM.
O=c1[nH]cc(F)c(=O)[nH]1 [FLUOROURACIL] gave an IC50 (SK-OV-3) of 25 µM, an IC50 (EC9706 [15]) of 2.45 µM and an IC50 (HeLa [16]) of 18.8 µM. It also gave an EC50 (ECa-109 cell line [17]) of 21.1 µM, an IC50 (HepG2) of 66.8 µM and an IC50 (MCF7 [18]) of 25.4 µM. It also gave an IC50 (MGC-803 [19]) of 15.7 µM, an IC50 (MCF7 [20]) of 10 µM and an IC50 (MGC-803 [21]) of 26.4 µM. It also gave an IC50 (A549) of 5.7 µM and an IC50 (PC-3 [22]) of 6.7 µM.
C[C@]12CC[C@H](O)C[C@@H]1CC[C@@H]1[C@@H]2CC[C@]2(C)c3c(C#N)c(S)nc(-c4ccccc4)c3C[C@@H]12 gave an Activity (Rattus norvegicus [1]) of 0.577 g, an LD50 at 336 h [2] of 4910 mg/kg and a Ratio (Rattus norvegicus [3]) of 1.37. For the same compound, the Activity (Rattus norvegicus [4]) was 0.421 g.
With C[C@]12CC[C@H](O)CC1=CC[C@@H]1[C@@H]2CC[C@]2(C)C(c3cccnc3)=CC[C@@H]12 [ABIRATERONE] the IC50 at 48 h [5] was 645 µM, the IC50 (PC-3 [6]) was 91 µM and the IC50 (PC-3 [22]) was 17.2 µM.
In the case of CC(=O)O[C@H]1CC[C@@]2(C)C(=CC[C@@H]3[C@@H]2CC[C@]2(C)c4cc(-c5ccccc5)ncc4C[C@@H]32)C1, the IC50 [10] is reported as ≥ 100 µM and the IC50 (HeLa [11]) is reported as ≥ 100 µM.
For CCOC(=O)c1cc2c(nc1CCl)[C@@]1(C)CC[C@H]3[C@@H](CC=C4C[C@@H](OC(C)=O)CC[C@@]43C)[C@@H]1C2, the IC50 (EC9706 [15]) was 37.6 µM, the EC50 (ECa-109 cell line [17]) was 15.5 µM and the IC50 (MGC-803 [21]) was 9.84 µM.
Compound COc1cccc2c1C(=O)c1c(O)c3c(c(O)c1C2=O)C[C@@](O)(C(=O)CO)C[C@@H]3O[C@H]1C[C@H](N)[C@H](O)[C@H](C)O1 [DOXORUBICIN] has an IC50 [10] of 9 µM.
Compound CCOc1nc(-c2ccc(F)cc2)c2c(c1C#N)[C@@]1(C)CC[C@H]3[C@@H](CC[C@H]4C[C@@H](O)CC[C@@]43C)[C@@H]1C2 has an Activity (Rattus norvegicus [1]) of 0.191 g, an LD50 at 336 h [2] of 4890 mg/kg and a Ratio (Rattus norvegicus [3]) of 1.55. The Activity (Rattus norvegicus [4]) was 0.123 g.
